Values quoted from earlier work as cited in publication PMC9890135 (Molecular Cancer Therapeutics, 2022).

Conditions: cited from earlier work

In the case of `COc1cc2nccc(Oc3ccc(NC(=O)C4(C(=O)Nc5ccc(F)cc5)CC4)cc3)c2cc1OC` [Cabozantinib, cabozantinib], the plasma half-life is given as “approximately 99 hours”.
